Source: ChEMBL document CHEMBL1141267, “Side-chain truncation of apicularen A by olefin cross-metathesis with ethylene” (J Nat Prod, 2007)
pIC50: −log10 of the molar value. Activity calls are given as the source filed them. The rule behind the calls is not given here.

Legend:
L929 = assay: Cytotoxicity against mouse L929 cells; format: functional, cell-based
[1] = Inhibition of tobacco hornworm V-ATPase; design: species or system Manduca sexta

Q: With C=CC[C@H]1C[C@H]2C[C@H](O)C[C@H](Cc3cccc(O)c3C(=O)O1)O2 as the compound, how does the Activity (L929) read?
A: The Activity was “inactive”.

Q: With CC/C=C\C=C/C(=O)N/C=C/C[C@H]1C[C@H]2C[C@H](O)C[C@H](Cc3cccc(O)c3C(=O)O1)O2 [APICULAREN A] as the compound, how does the pIC50 [1] read?
A: The pIC50 was 7.70.
